Measured values published in patent US7385051B2, “Fluorescent N2,N3-etheno-purine (2′-deoxy) riboside derivatives and uses thereof” (Bar-llan University, priority 2005, dated 2008).
Where “and” joins values, the source holds several entries; their conditions need not be identical. Identical values can stand only once. Entries after “also recorded” stand apart in the source; their conditions may differ. Like-named read-outs stand apart in the source and are kept apart here. Values belong to the molecule of their own block, whether it stands above or below them.

Columns and labels:
[1] = target: T1, rat brain P2Y1-receptor (Rattus norvegicus, UniProt P49651); assay: Agonist-induced Ca2+ release in HEK 293 cells stably transfected with P2Y1-receptor; type: cell-based; details: HEK 293 cells with rat brain P2Y1-receptor
T1 construct: expressed in transfected cells
T1 sequence (P49651 whole entry): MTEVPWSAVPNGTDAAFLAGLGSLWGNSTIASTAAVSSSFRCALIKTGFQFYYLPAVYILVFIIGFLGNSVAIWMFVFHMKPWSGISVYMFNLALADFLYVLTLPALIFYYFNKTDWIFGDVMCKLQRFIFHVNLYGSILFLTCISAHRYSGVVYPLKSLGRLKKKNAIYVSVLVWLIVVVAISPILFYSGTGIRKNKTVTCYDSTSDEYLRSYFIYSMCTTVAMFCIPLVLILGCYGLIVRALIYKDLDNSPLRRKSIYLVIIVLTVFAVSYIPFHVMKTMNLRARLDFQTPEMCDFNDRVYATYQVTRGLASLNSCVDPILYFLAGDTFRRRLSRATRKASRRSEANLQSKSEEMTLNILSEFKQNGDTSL
Description: To examine the efficacy of analogues 30a,d in a functional assay, we tested them by the agonist-induced Ca^2+ release in HEK 293 cells stably transfected with rat brain P2Y1-receptor (FIG. 6) (Voehringer et al., 2000). […] However, a benzyl substitution at N^6 of 30a, as in analogue 30d, reduced the ligand's potency. […] EC50 value in the range of 10^−6 M.

[2] = cited from earlier work
[3] = Absorption spectra (UV-Visible) in aqueous solution at several pH values; type: physicochemical; design: Absorption λmax: unit not given here
Description: Absorption spectra of compounds 4 and 23 were measured using a Varian array-1E UV-Visible spectrometer. Spectra were determined in dilute HCl or NaOH solutions in the pH range of 1.6-12.3 or at pH 7.0. The concentration of the samples of 4 in aqueous solutions and in organic solvents was of the order of 4.85×10^−5 M and of 23 in aqueous solutions was of the order of 5.04×10^−5 M.

[4] = pKa determination by pH-titration monitored by fluorescence spectroscopy; type: physicochemical
Description: H-bonding pattern of N^2,N3-ε-A is dependent not only on tautomeric equilibria, but also on acid-base equilibria, namely, on protonation states. For analyzing the protonation state of N^2,N3-ε-A at physiological pH, we determined the pKa values of this system.
Specifically, we monitored the pH-titration of N^2,N3-E-A, 4, by fluorescence spectroscopy. 1×10^−5 M solutions of N^2,N3-ε-A-5′-mono-phosphate were titrated by HCl in the pH range of 1.5-7.0.

[5] = Fluorescence life-time; type: physicochemical
Description: Fluorescent emission is a random process, and the excited molecules emit photons within a certain time, usually of the order of ns. For N^2,N3-ε-A, 4, and N^2,N3-ε-2′-deoxy-A, 23, fluorescence life times of 2.26 and 2.1 ns, respectively, were measured. These life times are relatively long and are therefore more convenient for the fluorescence measurements.

[6] = Emission (fluorescence) spectra and quantum yield, quinine sulfate as reference; type: physicochemical; design: Emission λmax: unit not given here; details: for Maximum emission (λmax) in water / Quantum yield (φ) in water: excitation at 290 nm (4), 330 nm (17); for φ290: 290 nm
Description: Emission spectra of compounds 4 and 23 were measured using an Aminco-Bowman series 2 Luminescence Spectrometer. Measurement conditions included: 740-750 V sensitivity, and a 4 or 2 nm slit in the emission spectra for aqueous or organic solutions, respectively. Emission spectra were corrected by the subtraction of the medium's emission spectrum. Spectra were determined in dilute HCl or NaOH solutions in the pH range of 1.6-12.3 or at pH 7. The concentration of the samples of 4 was of the order of 4.85×10^−5 M for aqueous and organic solutions and of 23 in the order of 5.04×10^−5 M for aqueous solutions. All organic solvents were freshly distilled prior to emission measurements. Measurements of the emission of the nucleoside analogue were conducted with subtraction of the solvent's emission. The quantum yield of each compound was calculated from the observed absorbance at 290 nm and the area of the fluorescence emission band. Quinine sulfate was used as reference compound assuming a quantum yield value of 0.55 (Andrew et al., 1988).

[7] = cited from earlier work; remark: listed apart in the source
[8] = Stability under automated DNA synthesis conditions (TLC and MS); type: physicochemical
Description: In order for a compound to be used in automated DNA synthesis, it has to be able to withstand the conditions of the different reactions in the synthesis. For example, it has to be stable in the treatment with 28% ammonia for two hours at 60° C.

[9] = 1×10^−5 M solutions of the 5′-mono-phosphate titrated by HCl, pH 1.5-7.0, listed as N^2,N3-ε-A
[10] = in DMF (εd 37.6), 4.85 × 10^−5 M
[11] = in DMSO (εd 47.6), 4.85 × 10^−5 M
[12] = in Dioxane (εd 2.2), 4.85 × 10^−5 M

- EC50 ([1]; Ca^2+ release): ~1000 nM
Compound: O=P(O)(O)OP(=O)(O)OP(=O)(O)OCC1OC(n2cnc3c(NCc4ccccc4)nc4nccn4c32)C(O)C1O (centres unmarked) [Compound 30d, N^6-Benzyl-N^2,N3-ethenoadenosine-5′-triphosphate]
- Potency at P2Y1-R compared to ATP / 30a [1]: reduction by one order of magnitude; also recorded: significant reduction of the affinities

- Absorption bands in water ([3]; in water): 234 nm and 274 nm
- Absorption coefficient of the band at 234 nm ([3]; in water, 234 nm): 12.6×10^3
- Absorption coefficient of the band at 274 nm ([3]; in water, 274 nm): 3.3×10^3
- Absorption λmax ([3]; pH 1.6, 4.85 × 10^−5 M): 224 and 268
- εd ([3]; pH 1.6, band at λmax 224): 6.17 × 10^3
- εd ([3]; pH 1.6, band at λmax 268): 14.22 × 10^3
- Absorption λmax ([3]; pH 7.0, 4.85 × 10^−5 M): 234 and 274
- εd ([3]; pH 7.0, band at λmax 234): 12.58 × 10^3
- εd ([3]; pH 7.0, band at λmax 274): 3.31 × 10^3
- Absorption λmax ([3]; pH 12.3, 4.85 × 10^−5 M): 234 and 276
- εd ([3]; pH 12.3, band at λmax 234): 13.89 × 10^3
- εd ([3]; pH 12.3, band at λmax 276): 3.69 × 10^3
- pKa (first; assigned to the exocyclic amine) [4, 9]: 1.92
- pKa (second; attributed to N8) [4, 9]: 3.16
- pKa (third; N7, most basic nitrogen) [4, 9]: 6.09
- pKa (first; assigned to the exocyclic amine) ([4]; pH 1.5): 1.92±0.08
- pKa (second; attributed to N8) ([4]; pH 1.5): 3.16±0.24
- pKa (third; N7, most basic nitrogen) ([4]; pH 1.5): 6.09±0.16
- Non-protonated fraction at physiological pH ([4]; pH 7.4): 96%
- Fluorescence life time [5]: 2.26 ns
- Fluorescence at acidic pH ([6]; acidic pH): significant fluorescence
- Emission λmax [6, 10]: 448
- φ (quantum yield) [6, 10]: 0.082
- Emission λmax [6, 11]: 458
- φ (quantum yield) [6, 11]: 0.085
- Emission λmax [6, 12]: 434
- φ (quantum yield) [6, 12]: 0.042
- Maximum emission (λmax) in water [6]: 420 nm
- Quantum yield (φ) in water [6]: 0.03
- Emission λmax ([6]; pH 1.6, 4.85 × 10−5 M): 396
- φ (quantum yield) ([6]; pH 1.6, 4.85 × 10−5 M): 0.021
- Emission λmax ([6]; pH 7.0, 4.85 × 10−5 M): 420
- φ (quantum yield) ([6]; pH 7.0, 4.85 × 10−5 M): 0.032
- Emission λmax ([6]; pH 12.3, 4.85 × 10−5 M): 420
- φ (quantum yield) ([6]; pH 12.3, 4.85 × 10−5 M): 0.031
Compound: Nc1nc2nccn2c2c1ncn2C1OC(CO)C(O)C1O (centres unmarked) [Compound 4, N^2,N3-etheno-adenosine]

- ε (238 nm) ([3]; pH 7.0): 4.12×10^3
- ε (308 nm) ([3]; pH 7.0): 1.02×10^3
- φ290 ([6]; pH 7.0): 0.07
Compound: Nc1c2ncn(C3CC(O)C(CO)O3)c2nc2nccn12 (centres unmarked) [Compound 25, N1,N^2-etheno-2′-deoxy-adenosine]

- ε (238 nm) ([3]; pH 7.0): 4.67×10^3
- ε (308 nm) ([3]; pH 7.0): 1.23×10^3
- Stability against 2% dichloroacetic acid ([8]; 2% dichloroacetic acid, 2 min): stable
- Stability in 28% ammonia ([8]; 28% ammonia, two hours at 60° C.): stable
- Fluorescence life time [5]: 2.1 ns
- φ290 ([6]; pH 7.0): 0.085
Compound: Nc1nc2nccn2c2c1ncn2C1CC(O)C(CO)O1 (centres unmarked) [Compound 23]

- Absorption bands in water ([3]; in water): 227 nm and 247 nm and 307 nm and 345 nm
- Absorption λmax ([3]; pH 1.6, 5.04 × 10^−5 M): 227 and 243 and 301 and 331
- εd ([3]; pH 1.6, band at λmax 227): 16.52 × 10^3
- εd ([3]; pH 1.6, band at λmax 243): 13.57 × 10^3
- εd ([3]; pH 1.6, band at λmax 301): 7.39 × 10^3
- εd ([3]; pH 1.6, band at λmax 331): 7.13 × 10^3
- Absorption λmax ([3]; pH 7.0, 5.04 × 10^−5 M): 231 and 247 and 307 and 345
- εd ([3]; pH 7.0, band at λmax 231): 16.09 × 10^3
- εd ([3]; pH 7.0, band at λmax 247): 13.25 × 10^3
- εd ([3]; pH 7.0, band at λmax 307): 7.07 × 10^3
- εd ([3]; pH 7.0, band at λmax 345): 2.90 × 10^3
- Absorption λmax ([3]; pH 12.3, 5.04 × 10^−5 M): 233 and 307
- εd ([3]; pH 12.3, band at λmax 233): 19.29 × 10^3
- εd ([3]; pH 12.3, band at λmax 307): 5.95 × 10^3
- Maximum emission (λmax) in water [6]: 520 nm and 518 nm
- Quantum yield (φ) in water [6]: 0.15
- Emission λmax ([6]; pH 1.6, 5.04 × 10^−5 M): 492 and 516
- φ (quantum yield) ([6]; pH 1.6, 5.04 × 10^−5 M): 0.037
- Emission λmax ([6]; pH 7.0, 5.04 × 10^−5 M): 494 and 518
- φ (quantum yield) ([6]; pH 7.0, 5.04 × 10^−5 M): 0.152
- Emission λmax ([6]; pH 12.3, 5.04 × 10^−5 M): 494 and 520
- φ (quantum yield) ([6]; pH 12.3, 5.04 × 10^−5 M): 0.067
Compound: CSc1nc2nccn2c2c1ncn2C1OC(CO)C(O)C1O (centres unmarked) [Compound 17, N^2,N3-etheno-6-methylthio-purine riboside]

Continued, molecule first:

Compound: OC[C@H]1O[C@@H](n2cnc3c2ncn2ccnc32)[C@H](O)[C@@H]1O [Compound 1, N1,N^6-etheno-adenosine]
- Emission λmax ([2]; Secrist et al., 1972, Thomas and Leonard, 1976): 415 nm

Compound: O=c1c2ncn(C3O[C@H](CO)[C@@H](O)[C@H]3O)c2[nH]c2nccn12 (some centres unmarked) [Compound 5]
- Fluorescence ([2]; Sattsangi et al., 1977, Kusmierek et al., 1992): non-fluorescent

Compound: O=c1nc2[nH]ccn2c2c1ncn2[C@@H]1O[C@H](CO)[C@@H](O)[C@H]1O [Compound 3, N^2,N3-etheno-guanosine]
- pKa ([7]; literature (Glemarec et al., 1991 for the ε-G compounds)): 2.11
- pKa of N7 ([7]; literature value as quoted): 5.20
- Maximum emission ([2]; excitation at 280 nm, Sattsangi et al., 1977): 410 nm
- Emission maximum in water ([2]; in water, Kusmierek et al., 1987): 410 nm
